Our source for the IC50 and inhibition values is patent US20240287079A1, “6-AMINOPYRAZOLOPYRIMIDINE COMPOUND AND PHARMACEUTICAL USE THEREOF” (Japan Tobacco Inc., priority 2021, published 2024).

The structures appear in SMILES notation.

NLRP3 inflammasome, sequence (Q96P20 whole entry): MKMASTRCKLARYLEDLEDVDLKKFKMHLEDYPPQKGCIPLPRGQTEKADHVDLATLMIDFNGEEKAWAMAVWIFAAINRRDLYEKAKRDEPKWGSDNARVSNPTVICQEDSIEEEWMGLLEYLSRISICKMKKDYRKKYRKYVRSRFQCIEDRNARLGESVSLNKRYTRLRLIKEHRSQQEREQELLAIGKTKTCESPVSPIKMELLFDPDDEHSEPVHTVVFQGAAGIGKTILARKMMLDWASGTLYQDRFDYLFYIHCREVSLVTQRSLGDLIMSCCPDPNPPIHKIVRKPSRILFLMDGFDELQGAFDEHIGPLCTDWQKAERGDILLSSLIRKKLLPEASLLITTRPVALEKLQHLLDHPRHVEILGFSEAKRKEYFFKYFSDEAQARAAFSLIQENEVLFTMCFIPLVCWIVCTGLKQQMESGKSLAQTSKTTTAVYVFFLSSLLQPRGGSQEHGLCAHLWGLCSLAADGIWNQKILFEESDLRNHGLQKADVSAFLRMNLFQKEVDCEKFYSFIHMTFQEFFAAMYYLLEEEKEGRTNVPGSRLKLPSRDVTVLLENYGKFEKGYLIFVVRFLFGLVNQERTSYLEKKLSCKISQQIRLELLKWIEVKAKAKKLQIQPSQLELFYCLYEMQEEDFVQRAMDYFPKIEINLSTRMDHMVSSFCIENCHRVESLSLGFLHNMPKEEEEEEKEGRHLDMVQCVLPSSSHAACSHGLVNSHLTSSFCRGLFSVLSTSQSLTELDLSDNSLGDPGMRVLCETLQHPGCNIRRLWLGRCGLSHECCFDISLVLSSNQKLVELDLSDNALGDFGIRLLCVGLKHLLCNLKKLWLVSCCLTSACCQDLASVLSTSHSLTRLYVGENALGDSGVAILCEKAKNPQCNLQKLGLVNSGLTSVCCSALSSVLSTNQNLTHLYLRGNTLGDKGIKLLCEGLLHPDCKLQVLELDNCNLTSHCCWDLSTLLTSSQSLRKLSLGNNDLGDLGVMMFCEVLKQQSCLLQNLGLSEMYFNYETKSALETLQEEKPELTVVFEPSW

For one assay, the target named is NLRP3 inflammasome (Homo sapiens (Human), UniProt Q96P20). The experiment in a line: Evaluation of NLRP3 inflammasome inhibitory activity (inhibition of IL-1β production in LPS/Nigericin-stimulated THP1-Null cells). The format is cell-based. Conditions: IL-1β production in THP1-Null cells, PMA, LPS 1 μg/mL, Nigericin 7.5 μmol/L, AlphaLISA. How it is done:
The NLRP3 inflammasome inhibitory activity of test compounds were evaluated on the basis of the inhibitory activity of the IL-1β production in THP1-Null cells (Product Number: thp-null, InvivoGen). […] The supernatant of the culture was removed, and thereto was added media for assay (25 μL/well) containing 1 μg/mL Lipopolysaccharides (Product Number: L2654, Sigma-Aldrich (registered trademark)). […] The supernatant of the culture was removed. […] A solution containing a test compound (20 μL/well) was added to test compound-setting wells. […] The supernatant of the culture was cryonically stored (set at −20° C.) until measurement of IL-1β.
The amount of IL-1β in the culture supernatant was quantitated with AlphaLISA(registered trademark) Human IL-1β Detection Kit (Product Number: AL220C, Perkin Elmer). Fluorescence intensity was measured with a microplate reader EnSpier (Model number: 2300-00J, Perkin Elmer) or EnSight(Model number: HH34000000, Perkin Elmer) according to procedure manuals attached thereto. Inhibition rates of the test compound-setting wells were calculated on the basis of 100% for the blank-setting wells and 0% for the control-setting wells.
(In general: In Alpha technology, singlet oxygen from a donor bead excites a nearby acceptor bead.)
In the case of `O=c1[nH]c(N2CCCC2)nc2nn(-c3c(Cl)cccc3Cl)cc12` [Example 30, 2-(2,6-dichlorophenyl)-6-(pyrrolidin-1-yl)-2,5-dihydro-4H-pyrazole[3,4-d]pyrimidin-4-one], inhibition was half-maximal at 1.1 µM (IC50).
Still for that read-out and setting: then `CC(C)c1ccccc1-n1cc2c(=O)[nH]c(N3CCCC3)nc2n1` [Example 31], with 0.54 µM.
In the case of `O=c1[nH]c(N2CCCC2)nc2nn(-c3ccc(F)cc3Cl)cc12` [Example 32], the IC50 (usually the point on the concentration scale where inhibition reaches its midpoint) stood at 0.24 µM.
Same read-out and setting: then `COC1CN(c2nc3nn(-c4ccccc4C)cc3c(=O)[nH]2)C1` [Example 33], with 2.3 µM.
For the molecule `Cc1ccccc1-n1cc2c(=O)[nH]c(N3CC(F)(F)C3)nc2n1` [Example 34], the IC50 came out at 0.47 µM.
As to `Cc1ccccc1-n1cc2c(=O)[nH]c(NCC(C)C)nc2n1` [Example 35], the IC50 is 1.7 µM.
For `CNc1nc2nn(-c3ccccc3C)cc2c(=O)[nH]1` [Example 36], the IC50 came to 1.7 µM.
On to `Cc1ccccc1-n1cc2c(=O)[nH]c(N3CCC3(C)C)nc2n1` [Example 39], for which the midpoint of inhibition, the IC50, lay at 7.1 µM.
The same measure, in the same setting: for `Cc1ccc(-n2cc3c(=O)[nH]c(N4CCCC4)nc3n2)cc1` [Example 40] the value was 0.77 µM; for `COC[C@H]1CCCN1c1nc2nn(-c3ccccc3C)cc2c(=O)[nH]1` [Example 41], 4.1 µM; for `COC[C@@H]1CCCN1c1nc2nn(-c3ccccc3C)cc2c(=O)[nH]1` [Example 42], 4.2 µM.
For `Cc1cccc(-n2cc3c(=O)[nH]c(N4CCCC4)nc3n2)c1` [Example 43], half-maximal inhibition (IC50) required 3.4 µM.
Still for that read-out and setting: for `Cc1ccc(-n2cc3c(=O)[nH]c(N4CCCC4)nc3n2)c(C)c1` [Example 45] the value was 0.07 µM; for `Cc1ccc(C)c(-n2cc3c(=O)[nH]c(N4CCCC4)nc3n2)c1` [Example 46], 0.29 µM; for `Cc1cccc(-n2cc3c(=O)[nH]c(N4CCCC4)nc3n2)c1C` [Example 47], 0.23 µM.
On the same count and under the same terms, then `O=c1[nH]c(N2CCCC2)nc2nn(-c3ccc(C(F)(F)F)cc3)cc12` [Example 49], with 0.34 µM; and `COC1CN(c2nc3nn(-c4c(C)cccc4C)cc3c(=O)[nH]2)C1` [Example 50], with 1.2 µM; and `Cc1cccc(C)c1-n1cc2c(=O)[nH]c(N3CC(OCC(F)(F)F)C3)nc2n1` [Example 51], with 2.2 µM.
Still for that read-out and setting: then `Cc1ccc(-n2cc3c(=O)[nH]c(N4CCCC4)nc3n2)cc1C` [Example 52], with 2.1 µM; and `Cc1cccc(C)c1-n1cc2c(=O)[nH]c(N3CC(C(F)(F)F)C3)nc2n1` [Example 53], with 0.75 µM; and `Cc1ccc(-n2nc3nc(N4CCCC4)[nH]c(=O)c3c2C)c(C)c1` [Example 55], with 0.23 µM.
Consider `Cc1ccc(-n2cc3c(=O)[nH]c(N4CCOCC4)nc3n2)c(C)c1` [Example 58], for which the IC50 turned out to be 0.12 µM.
Take `COC1CN(c2nc3nn(-c4ccc(C)cc4C)cc3c(=O)[nH]2)C1` [Example 59]: 0.37 µM corresponded to half-maximal inhibition (IC50).
Same read-out and setting: for `COCCNc1nc2nn(-c3ccc(C)cc3C)cc2c(=O)[nH]1` [Example 60] the value was 0.24 µM; for `CCCCNc1nc2nn(-c3ccccc3C)cc2c(=O)[nH]1` [Example 61], 0.68 µM; for `Cc1cc(Br)ccc1-n1cc2c(=O)[nH]c(N3CCCC3)nc2n1` [Example 62], 0.0091 µM.
The same measure, in the same setting: for `Cc1cc(C)c(-n2cc3c(=O)[nH]c(N4CCCC4)nc3n2)c(C)c1` [Example 63] the value was 0.017 µM; for `Cc1cc(C)cc(-n2cc3c(=O)[nH]c(N4CCCC4)nc3n2)c1` [Example 64], 0.29 µM.
The molecule `CNc1nc2nn(-c3ccc(C)cc3C)cc2c(=O)[nH]1` [Example 65] gave an IC50 of 0.08 µM.
The molecule `CC(=O)N(C)c1nc2nn(-c3ccc(C)cc3C)cc2c(=O)[nH]1` [Example 66] displayed an IC50 of 4.3 µM.
Still for that read-out and setting: then `Cc1cc(C2=CCCCC2)ccc1-n1cc2c(=O)[nH]c(N3CCCC3)nc2n1` [Example 67], with 2.3 µM; and `O=c1[nH]c(N2CCCC2)nc2nn(-c3cccc4ccccc34)cc12` [Example 68], with 1.2 µM.
For `Cc1cc(Br)ccc1-n1cc2c(=O)[nH]c(N3CCOCC3)nc2n1` [Example 69], the IC50 is 0.024 µM.
Regarding `Cc1cc(C#N)ccc1-n1cc2c(=O)[nH]c(N3CCCC3)nc2n1` [Example 71], the IC50 was determined as 1.2 µM.
Still for that read-out and setting: then `CC(=O)N1CCN(c2nc3nn(-c4ccc(Br)cc4C)cc3c(=O)[nH]2)CC1` [Example 73], with 0.0082 µM.
For the molecule `Cc1cc(Br)ccc1-n1cc2c(=O)[nH]c(NCc3ccccc3)nc2n1` [Example 74], the IC50 was 0.025 µM.
Same read-out and setting: for `Cc1cc(Br)ccc1-n1cc2c(=O)[nH]c(N3Cc4ccccc4C3)nc2n1` [Example 75] the value was 0.014 µM; for `Cc1cc(Br)ccc1-n1cc2c(=O)[nH]c(N3CC(F)(F)C3)nc2n1` [Example 76], 0.0048 µM; for `Cc1cc(Br)cnc1-n1cc2c(=O)[nH]c(N3CCCC3)nc2n1` [Example 77], 0.049 µM.
For `Cc1cc(Br)ccc1-n1cc2c(=O)[nH]c(N3CCNC(=O)C3)nc2n1` [Example 78], the midpoint of inhibition, the IC50, lay at 0.028 µM.
The same measure, in the same setting: for `Cc1cc(Br)ccc1-n1cc2c(=O)[nH]c(N3CCS(=O)(=O)CC3)nc2n1` [Example 79] the value was 0.0059 µM; for `CNc1nc2nn(-c3ccc(C)cc3C)cc2c(=O)n1C` [Example 80], 0.57 µM.
For the molecule `C=C(C)c1ccc(-n2cc3c(=O)[nH]c(N4CCCC4)nc3n2)c(C)c1` [Example 81], the IC50 was determined as 0.011 µM.
Same read-out and setting: for `Cc1cc(C2CC2)ccc1-n1cc2c(=O)[nH]c(N3CCCC3)nc2n1` [Example 82] the value was 0.0041 µM; for `Cc1cc(C(C)C)ccc1-n1cc2c(=O)[nH]c(N3CCCC3)nc2n1` [Example 83], 0.0084 µM.
On the same count and under the same terms, for `Cc1ccc(-n2cc3c(=O)[nH]c(N4CCN(C)CC4)nc3n2)c(C)c1` [Example 84] the value was 0.095 µM; for `Cc1ccc(-n2cc3c(=O)[nH]c(N4CC(F)(F)C(F)(F)C4)nc3n2)c(C)c1` [Example 85], 0.024 µM; for `O=c1[nH]c(N2CCCC2)nc2nn(-c3ccc(C(F)(F)F)cc3Cl)cc12` [Example 86], 0.0029 µM.
On the same count and under the same terms, for `Cc1ccc(-n2cc3c(=O)[nH]c(N4CCCC4)nc3n2)c(Cl)c1` [Example 87] the value was 0.0051 µM.
Consider `Cc1cc(Br)ccc1-n1cc2c(=O)n(C)c(N3CCOCC3)nc2n1` [Example 88, 2-(4-bromo-2-methylphenyl)-5-methyl-6-morpholino-2,5-dihydro-4H-pyrazolo[3,4-d]pyrimidin-4-one], for which the IC50 stood at 0.039 µM.
On the same count and under the same terms, then `Cc1cc(Br)ccc1-n1cc2c(=O)[nH]c(N3CCN(S(C)(=O)=O)CC3)nc2n1` [Example 91], with 0.0067 µM; and `Cc1cc(C)c(-n2cc3c(=O)[nH]c(N4CC(F)(F)C4)nc3n2)c(C)c1` [Example 92], with 0.011 µM; and `Cc1cc(Cl)ccc1-n1cc2c(=O)[nH]c(N3CCCC3)nc2n1` [Example 95], with 0.0052 µM.
Still for that read-out and setting: for `Cc1cc(C)c(-n2cc3c(=O)[nH]c(N4CCOCC4)nc3n2)c(C)c1` [Example 96] the value was 0.014 µM; for `O=c1[nH]c(N2CCCC2)nc2nn(-c3ccc(Cl)cc3F)cc12` [Example 97], 0.027 µM.
Still for that read-out and setting: for `Cc1cc(C(F)(F)F)ncc1-n1cc2c(=O)[nH]c(N3CCOCC3)nc2n1` [Example 98, 2-(4-methyl-6-(trifluoromethyl)pyridin-3-yl)-6-morpholino-2,5-dihydro-4H-pyrazolo[3,4-d]pyrimidin-4-one] the value was 0.054 µM; for `Cc1cc(C(F)(F)F)ncc1-n1cc2c(=O)[nH]c(N3CC(F)(F)C3)nc2n1` [Example 99], 0.082 µM; for `Cc1cc(C)c(-n2cc3c(=O)[nH]c(N4CCCOCC4)nc3n2)c(C)c1` [Example 100], 0.02 µM.
`Cc1cc(C)c(-n2cc3c(=O)[nH]c(N4CCN(C(=O)OC(C)(C)C)CC4)nc3n2)c(C)c1` [Example 101] registered an IC50 of 0.0056 µM.
The same measure, in the same setting: for `Cc1cc(C)c(-n2cc3c(=O)[nH]c(N4CCNCC4)nc3n2)c(C)c1` [Example 102] the value was 0.13 µM; for `Cc1cc(C)c(-n2cc3c(=O)[nH]c(N4CCN(S(=O)(=O)C5CC5)CC4)nc3n2)c(C)c1` [Example 103], 0.0065 µM; for `O=c1[nH]c(N2CCOCC2)nc2nn(-c3ccc(Br)cc3CO)cc12` [Example 104], 0.14 µM.
The molecule `Cc1cc(C)c(-n2cc3c(=O)[nH]c(N4CCC(O)CC4)nc3n2)c(C)c1` [Example 105] displayed an IC50 of 0.064 µM.
Same read-out and setting: for `COC1CCN(c2nc3nn(-c4c(C)cc(C)cc4C)cc3c(=O)[nH]2)CC1` [Example 106] the value was 0.096 µM; for `Cc1cc(C)c(-n2cc3c(=O)[nH]c(N4CC5C(C4)C5(F)F)nc3n2)c(C)c1` (centres unmarked) [Example 114], 0.027 µM.
Molecule `Cc1cc(C)c(-n2cc3c(=O)[nH]c(N4CCC(CO)CC4)nc3n2)c(C)c1` [Example 115] yielded an IC50 of 0.035 µM.

Still in this assay, the particulars now being: IL-1β production in THP1-Null cells; test compound 0.024 μM.
Take `COc1nc(N2CCOCC2)nc2nn(-c3ccc(Br)cc3C)cc12` [Example 89, 4-(2-(4-bromo-2-methylphenyl)-4-methoxy-2H-pyrazolo[3,4-d]pyrimidin-6-yl)morpholine]: the inhibition (commonly the relative decrease from the control value, in per cent) at 0.024 µM was found to be 77%.

The same assay, now with this note: IL-1β production in THP1-Null cells; test compound 24 μM.
Molecule `Cc1ccccc1-n1cc2c(=O)[nH]c(Nc3c4c(cc5c3CCC5)CCC4)nc2n1` [Example 44] registered an inhibition at 24 µM of 21%.
